Test results published in PubChem BioAssay AID330 (DTP/NCI, 2004).
Where “and” joins values, the source holds several entries; their conditions need not be identical. Equal values may be shown once. Inconclusive results and toxic doses are left out.

System: P388 leukemia ip, CD2F1 mice, survival T/C
Test: NCI In Vivo Anticancer Drug Screen. Data for tumor model P388 Leukemia (intraperitoneal) in CD2F1 (CDF1) mice
Settings: endpoint: median survival time, higher = longer survival
Procedure, shortened: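 Mice carrying the transplanted tumor received test compound or vehicle. Survival was recorded in each group, and the value is the treated-group measurement divided by that of the vehicle-treated control group.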

[1] = dose: 50.0 mg/kg/injection, schedule: Q01DX005 (ip), vehicle: saline with Tween-80
[2] = dose: 100.0 mg/kg/injection, schedule: Q01DX005 (ip), vehicle: saline with Tween-80
[3] = dose: 200.0 mg/kg/injection, schedule: Q01DX005 (ip), vehicle: saline with Tween-80
[4] = dose: 25.0 mg/kg/injection, schedule: Q01DX009 (ip), vehicle: saline
[5] = dose: 50.0 mg/kg/injection, schedule: Q01DX009 (ip), vehicle: saline
[6] = dose: 100.0 mg/kg/injection, schedule: Q01DX009 (ip), vehicle: saline
[7] = dose: 200.0 mg/kg/injection, schedule: Q01DX009 (ip), vehicle: saline
[8] = dose: 100.0 mg/kg/injection, schedule: Q04DX002 (ip), vehicle: saline with Tween-80
[9] = dose: 200.0 mg/kg/injection, schedule: Q04DX002 (ip), vehicle: saline with Tween-80
[10] = dose: 400.0 mg/kg/injection, schedule: Q04DX002 (ip), vehicle: saline with Tween-80
[11] = dose: 50.0 mg/kg/injection, schedule: Q01DX009 (ip), vehicle: saline with Tween-80
[12] = dose: 100.0 mg/kg/injection, schedule: Q01DX009 (ip), vehicle: saline with Tween-80
[13] = dose: 200.0 mg/kg/injection, schedule: Q01DX009 (ip), vehicle: saline with Tween-80

## O=C1OCC2=C1CN1CCc3cc4c(cc3C1C2)OCO4 (stereo unspecified)
dose: 0.63 mg/kg/injection, schedule: Q01DX009 (ip), vehicle: distilled water + Tween-80
  T/C: 94 % of control
dose: 1.25 mg/kg/injection, schedule: Q01DX009 (ip), vehicle: distilled water + Tween-80
  T/C: 103 % of control
dose: 2.5 mg/kg/injection, schedule: Q01DX009 (ip), vehicle: distilled water + Tween-80
  T/C: 112 % of control
dose: 5.0 mg/kg/injection, schedule: Q01DX009 (ip), vehicle: distilled water + Tween-80
  T/C: 103 % of control
dose: 10.0 mg/kg/injection, schedule: Q01DX009 (ip), vehicle: distilled water + Tween-80
  T/C: 103 % of control
dose: 20.0 mg/kg/injection, schedule: Q01DX009 (ip), vehicle: distilled water + Tween-80
  T/C: 94 % of control

## CC(C)=CCC/C(C)=C\C1OC(C)C(C)O1 (stereo unspecified)
[1]
  T/C: 104 % of control
[2]
  T/C: 100 % of control
[3]
  T/C: 107 % of control

## Cc1cc(=O)oc2cc3occc(=O)c3cc12
dose: 60.0 mg/kg/injection, schedule: Q01DX005 (ip), vehicle: saline with Tween-80
  T/C: 98 % of control
dose: 120.0 mg/kg/injection, schedule: Q01DX005 (ip), vehicle: saline with Tween-80
  T/C: 95 % of control
dose: 240.0 mg/kg/injection, schedule: Q01DX005 (ip), vehicle: saline with Tween-80
  T/C: 92 % of control

## C1CNCCSCCCSCCNC1
[4]
  T/C: 100 % of control
[5]
  T/C: 98 % of control
[6]
  T/C: 89 % of control
[7]
  T/C: 87 % of control

## CCCCOP(O)(=S)OCCCC.[Y]
dose: 25.0 mg/kg/injection, schedule: Q01DX009 (ip), vehicle: saline + alcohol
  T/C: 98 % of control
dose: 50.0 mg/kg/injection, schedule: Q01DX009 (ip), vehicle: saline + alcohol
  T/C: 99 % of control
dose: 100.0 mg/kg/injection, schedule: Q01DX009 (ip), vehicle: saline + alcohol
  T/C: 98 % of control
[8]
  T/C: 102 % of control
dose: 200.0 mg/kg/injection, schedule: Q01DX009 (ip), vehicle: saline + alcohol
  T/C: 91 % of control
[9]
  T/C: 96 % of control
[10]
  T/C: 96 % of control

## O=C1C=CC(=O)C(C2OC(=O)C(Br)=C2Br)=C1 (stereo unspecified)
dose: 50.0 mg/kg/injection, schedule: Q01DX005 (ip), vehicle: distilled water + Tween-80
  T/C: 114 % of control
dose: 100.0 mg/kg/injection, schedule: Q01DX005 (ip), vehicle: distilled water + Tween-80
  T/C: 115 % of control

## O=[N+]([O-])c1ccc(/C(=C\c2ccc(-c3ccccc3)o2)S(=O)(=O)c2ccccc2)o1
dose: 12.5 mg/kg/injection, schedule: Q01DX009 (ip), vehicle: saline
  T/C: 89 % of control
[4]
  T/C: 89 % of control

## CC12CN3CC(C)(C1=O)C(=O)C(C)(C3)C2=O
dose: 60.0 mg/kg/injection, schedule: Q01DX005 (ip), vehicle: saline
  T/C: 94 % of control
dose: 120.0 mg/kg/injection, schedule: Q01DX005 (ip), vehicle: saline
  T/C: 92 % of control
dose: 240.0 mg/kg/injection, schedule: Q01DX005 (ip), vehicle: saline
  T/C: 94 % of control

## O=c1cc(-c2ccc(OCc3ccccc3)cc2)oc2ccccc12
[1]
  T/C: 92 % of control
[2]
  T/C: 87 % of control
[3]
  T/C: 86 % of control

## CC1(C)OCC(C2OC3OC(C)(C)OC3/C2=N/NC(=O)c2cc3cc(OCc4ccccc4)ccc3[nH]2)O1 (stereo unspecified)
dose: 6.25 mg/kg/injection, schedule: Q01DX005 (ip), vehicle: saline
  T/C: 93 % of control
dose: 12.5 mg/kg/injection, schedule: Q01DX005 (ip), vehicle: saline
  T/C: 93 % of control
dose: 25.0 mg/kg/injection, schedule: Q01DX005 (ip), vehicle: saline
  T/C: 88 % of control
dose: 200.0 mg/kg/injection, schedule: Q01DX005 (ip), vehicle: saline
  T/C: 94 % of control

## Cc1cccc(C)c1NC(=O)NNC(N)=S
[11]
  T/C: 97 % of control

## O=c1cc(CCl)occ1O
[5]
  T/C: 100 % of control and 113 % of control
[6]
  T/C: 101 % of control and 103 % of control
[7]
  T/C: 100 % of control and 113 % of control
dose: 400.0 mg/kg/injection, schedule: Q01DX009 (ip), vehicle: saline
  T/C: 110 % of control and 95 % of control

## CCOC(OCC)c1ccc(Cl)cc1
dose: 100.0 mg/kg/injection, schedule: Q04DX003 (ip), vehicle: saline with Tween-80
  T/C: 100 % of control
dose: 200.0 mg/kg/injection, schedule: Q04DX003 (ip), vehicle: saline with Tween-80
  T/C: 105 % of control
dose: 400.0 mg/kg/injection, schedule: Q04DX003 (ip), vehicle: saline with Tween-80
  T/C: 106 % of control

## COC(=O)C(C)(OCc1ccccc1)C(C)C1CO1 (stereo unspecified)
[1]
  T/C: 100 % of control
[2]
  T/C: 115 % of control
[3]
  T/C: 113 % of control

## Cc1ccc(C(O)(c2nc3ccccc3s2)c2nc3ccccc3s2)cc1
[11]
  T/C: 101 % of control
[12]
  T/C: 112 % of control
[13]
  T/C: 113 % of control

## COc1cccc2c1C(=O)c1c(O)c3c(c(O)c1C2=O)CC(O)(/C(C)=N/NC(=O)CCCCCC(=O)N/N=C(\C)C1(O)Cc2c(O)c4c(c(O)c2C(OC2CC(N)C(O)C(C)O2)C1)C(=O)c1c(OC)cccc1C4=O)CC3OC1CC(N)C(O)C(C)O1 (stereo unspecified)
dose: 0.78 mg/kg/injection, schedule: Q01DX009 (ip), vehicle: water
  T/C: 158 % of control
dose: 1.56 mg/kg/injection, schedule: Q01DX009 (ip), vehicle: water
  T/C: 157 % of control and 163 % of control
dose: 3.13 mg/kg/injection, schedule: Q01DX009 (ip), vehicle: water
  T/C: 153 % of control and 154 % of control
dose: 6.25 mg/kg/injection, schedule: Q01DX009 (ip), vehicle: water
  T/C: 200 % of control and 202 % of control
dose: 12.5 mg/kg/injection, schedule: Q01DX009 (ip), vehicle: water
  T/C: 88 % of control and 93 % of control

## Nc1ccc(S(=O)c2ccc(N)cc2)cc1
dose: 6.25 mg/kg/injection, schedule: Q04DX003 (ip), vehicle: saline
  T/C: 118 % of control
dose: 12.5 mg/kg/injection, schedule: Q04DX003 (ip), vehicle: saline
  T/C: 107 % of control
dose: 25.0 mg/kg/injection, schedule: Q04DX003 (ip), vehicle: saline
  T/C: 104 % of control
dose: 50.0 mg/kg/injection, schedule: Q04DX003 (ip), vehicle: saline
  T/C: 109 % of control

## CCCCCCCNC1=C(N2CC2)C(=O)C(NCCCCCCC)=C(N2CC2)C1=O
dose: 1.25 mg/kg/injection, schedule: Q01DX009 (ip), vehicle: saline
  T/C: 100 % of control
dose: 2.5 mg/kg/injection, schedule: Q01DX009 (ip), vehicle: saline
  T/C: 105 % of control and 107 % of control
dose: 5.0 mg/kg/injection, schedule: Q01DX009 (ip), vehicle: saline
  T/C: 105 % of control and 106 % of control
dose: 10.0 mg/kg/injection, schedule: Q01DX009 (ip), vehicle: saline
  T/C: 106 % of control and 94 % of control
dose: 20.0 mg/kg/injection, schedule: Q01DX009 (ip), vehicle: saline
  T/C: 115 % of control and 90 % of control

## C(=C\c1ccc2cc(C3=NCCN3)[nH]c2c1)/c1ccc(Oc2ccc(C3=NCCN3)cc2)cc1 (tested in a mixture with another compound)
dose: 6.25 mg/kg/injection, schedule: Q01DX005 (ip), vehicle: Klucel (hydroxypropylcellulose) (HPC)
  T/C: 111 % of control
dose: 12.5 mg/kg/injection, schedule: Q01DX005 (ip), vehicle: Klucel (hydroxypropylcellulose) (HPC)
  T/C: 97 % of control
dose: 25.0 mg/kg/injection, schedule: Q01DX005 (ip), vehicle: Klucel (hydroxypropylcellulose) (HPC)
  T/C: 100 % of control

## O=c1[nH]c(=O)n(C2OC(CO)C(O)C2O)cc1CC(F)(F)C(F)(F)F (stereo unspecified)
dose: 50.0 mg/kg/injection, schedule: Q01DX001 (ip), vehicle: saline with Tween-80
  T/C: 107 % of control
dose: 100.0 mg/kg/injection, schedule: Q01DX001 (ip), vehicle: saline with Tween-80
  T/C: 106 % of control
dose: 200.0 mg/kg/injection, schedule: Q01DX001 (ip), vehicle: saline with Tween-80
  T/C: 100 % of control
dose: 400.0 mg/kg/injection, schedule: Q01DX001 (ip), vehicle: saline with Tween-80
  T/C: 101 % of control

## CCOc1ccc(C(CC)c2cc3c(cc2OC)OCO3)cc1 (stereo unspecified)
dose: 60.0 mg/kg/injection, schedule: Q01DX005 (ip), vehicle: saline + Tween-80 + alcohol
  T/C: 100 % of control
dose: 120.0 mg/kg/injection, schedule: Q01DX005 (ip), vehicle: saline + Tween-80 + alcohol
  T/C: 100 % of control
dose: 240.0 mg/kg/injection, schedule: Q01DX005 (ip), vehicle: saline + Tween-80 + alcohol
  T/C: 100 % of control

## NC(=O)C1C(C(N)=O)C2C3C=CC(C4C(=O)NC(=O)C34)C12 (stereo unspecified)
[8]
  T/C: 102 % of control
[9]
  T/C: 109 % of control
[10]
  T/C: 111 % of control

## CCCCCCC(=O)/C=C/c1cc(OC)c(OC)c(OC)c1
[11]
  T/C: 101 % of control
[12]
  T/C: 96 % of control
[13]
  T/C: 92 % of control
